Earlier results, collected in publication PMC5950987 (Journal of Diabetes Science and Technology, 2017).

Settings: administered by needle and syringe

regular human insulin
Intraindividual variability of the metabolic effect: 10-30%
